This note sets out measurements from patent US20220288081A1, “TREATMENT OF EXCITOTOXICITY-RELATED CONDITIONS” (priority 2019, published 2022).

Holding throughout (format): in vivo
In one test the test system is C57Bl/6 mice. In words: Pentylenetetrazole (PTZ)-induced excitotoxic seizure model. The note with it: for mean seizure severity (score 0 to 5): n=9. The procedure:
(§1) FIG. 3. LIMK1 inhibition reduced susceptibility to induced seizures and mitigated neuronal network hypersynchronisity in mice. (A) Excitotoxic seizures were induced by acute intraperitoneal injection of 50 mg/kg body weight pentylenetetrazole (PTZ) followed by timing and scoring (0=no seizures to 7=terminal status epilepticus) of seizure development. Mice were treated with vehicle or 10 mg/kg body weight LIMK1 inhibitor LIMKi intraperitoneally 30 minutes prior to seizure induction. […] (B) Compound hippocampal electroencephalography (EEG) recordings over 4 hours in non-transgenic (wt) and APP transgenic (APP23) mice including 2 hours before (Pre) and 2 hours after (Post) LIMKi or vehicle administration. Time of intraperitoneal LIMKi and vehicle administration is indicated with an arrow. […] Frequent spikes pre and post vehicle administration in APP23 mice. In contrast, LIMKi injection mitigates spike activity in APP23 post injection. […] From left to right: non-Tg+vehicle; non-Tg+LIMKi; APP23+vehicle; APP23+LIMKi.
Seizure model. Excitotoxic seizure were induced in mice by intraperitoneal injection of 50 mg/kg body weight pentylenetetrazole followed by observation in a square area (40×40 cm). Scoring of seizures was done as previously described (Ittner et al., 2010, Cell 142, 387-397). For LIMKi-treated mice, scoring was adjusted by combining the severe seizure scores 5 to 7 into a single score of 5. For both scales, minor to moderate seizures are reflected by scores <5.
(§2) Next, the inventors tested the effects of acute Compound 1 administration on neuronal network activity in APP23 mice. […] Furthermore, CFC 1 hour after Compound 1 administration was re-established (data not shown). […] Thus, inhibition of LIMK1 with Compound 1 conferred protection from Aβ toxicity in neurons and from excitotoxicity in vivo. Furthermore, treatment of APP23 with Compound 1 corrected network aberrations including CFC.

In the next test the test system is APP23 mice. In words: Telemetric hippocampal EEG recordings (spike analysis, cross frequency coupling) in APP23 mice. The settings on record: for amplitude phase in EEG recordings / modulation index of cross frequency coupling: vs wt controls; for spike frequency / hypersynchronous discharges in EEG: intraperitoneal, 2 hours pre vs 2 hours post administration, and vs vehicle. The procedure:
as §1
Mice. APP23 express human Swedish mutant (K595N/M596L) amyloid-β precursor protein (APP) in neurons (Sturchler-Pierrat et al., 1997, Proc Natl Acad Sci USA 94, 13287-13292). Limk1^−/− mice have been reported previously (Meng et al., 2002, Neuron 35, 121-133). All mice were on a pure C57Bl/6 background. Mice were housed in standard individually ventilated cages on a 12 hour light/dark cycle with access to standard chow and water ad libitum. Mice of both genders were used unless otherwise indicated. Investigators were blinded to genotypes until after completion of data analysis. All experiments were approved by the Animal Ethics Committee of Macquarie University.
Electroencephalography. Hippocampal EEG recordings were done with implanted telemetric electrodes (D.S.I.) as previously described (Ittner et al., 2014, Acta neuropathologica communications 2, 149). All recordings were done with mice individually housed in their home cages one week after implantation of transmitters. Compound administration was done intraperitoneally during transient restraining of mice. Vehicle for the LIMK1 inhibitor LIMKi contained hydroxypropyl methylcellulose 606 (HPMC 606) with polyvinylpyrrolidone k17 (PVP k17) and tween 80 in a proportion of 0.5%, 0.5%, 0.1%, respectively. Spike analysis was done with the Neuroscore software module (D.S.I.) as previously described (Ittner et al., 2016, Science 354, 904-908). Cross frequency coupling of theta and gamma waves was performed as previously described (Ittner et al., 2016, Science 354, 904-908).
as §2

The subject of another test is non-transgenic (wt) mice. In words: Telemetric hippocampal EEG recordings in non-transgenic (wt) mice. The settings on record: pre and post intraperitoneal injection. The procedure:
as §1
Electroencephalography. Hippocampal EEG recordings were done with implanted telemetric electrodes (D.S.I.) as previously described (Ittner et al., 2014, Acta neuropathologica communications 2, 149). All recordings were done with mice individually housed in their home cages one week after implantation of transmitters. […]

Setting [1] is: 10 mg/kg intraperitoneally 30 minutes prior to 50 mg/kg PTZ i.p., vs vehicle controls.
[2] abbreviates: 1 hour after administration, n=8.
[3] abbreviates: 1 hour after administration, n=8, listed as LIMKi.

Consider `Cc1c[nH]c2ncnc(N3CCN(/C(=N\C#N)Nc4cccc(Br)c4)[C@@H](C)C3)c12` [Compound 1], for which the “latency to develop severe seizures” value in the test on C57Bl/6 mice (10 mg/kg 30 minutes prior to PTZ, C57Bl/6 mice) is reported as “increased the latency to develop severe seizures”. For the same molecule, in the test with C57Bl/6 mice (setting [1]), the “development of severe seizure stages over time (score=5)” value is reported as “Only vehicle-treated mice develop severe seizure stages over time”, the “latency to develop lower grade seizures (score <5)” value is recorded as “Delayed latency to develop lower grade seizures” and the “mean seizure severity (score 0 to 5)” value is reported as “significantly reduced mean seizure severity”. Besides, the “mean seizure severity (score 0 to 5)” value in the test with C57Bl/6 mice (10 mg/kg intraperitoneally 30 minutes prior to 50 mg/kg PTZ i.p., vs vehicle controls, listed as LIMKi) is listed as “Significantly reduced seizure severity”. The “cross frequency coupling (CFC)” value in the test with APP23 mice (1 hour after administration, data not shown) is “re-established”. For the same molecule, in the test on APP23 mice (setting [2]), the “amplitude phase in EEG recordings” value is “normalized” and the “modulation index of cross frequency coupling” value is on record as “normalized”. Also, in the test with APP23 mice (setting [3]), the “amplitude phase in EEG recordings” value is “corrected 1 hour after LIMKi delivery and no longer different from wt controls”; the “modulation index of cross frequency coupling” value was “corrected 1 hours after LIMKi administration and no longer different from wt controls”. In the test on APP23 mice (n=8), the “spike frequency / hypersynchronous discharges in EEG” value is “hypersynchronicity significantly decreased”. Further, the “spike frequency / hypersynchronous discharges in EEG” value in the test on APP23 mice (n=8, listed as LIMKi) is “significantly reduced spike frequency”. In the test with non-transgenic (wt) mice, the “spike activity in EEG” value is reported as “No overt spike activity”.
